Columns and labels:
[1] = target: SARS-CoV-2 Main Protease (SARS-CoV-2) (UniProt P0DTD1)
Procedure: Compounds were seeded into assay-ready plates (Greiner 384 low volume, cat 784900) using an Echo 555 acoustic dispenser, and DMSO was back-filled for a uniform concentration in assay plates (DMSO concentration maximum 1%) Screening assays were performed in duplicate at 20µM and 50µM. […] Dose response assays were performed in 12 point dilutions of 2-fold, typically beginning at 100µM. […] Reagents for Mpro assay were dispensed into the assay plate in 10µl volumes for a final volume of 20µL.
Mpro was pre-incubated for 15 minutes at room temperature with compound before addition of substrate and a further 30 minute incubation. Protease reaction was measured in a BMG Pherastar FS with a 480/520 ex/em filter set. Raw data was mapped and normalized to high (Protease with DMSO) and low (No Protease) controls using Genedata Screener software.

[2] = target: SARS-CoV-2 Main Protease (SARS-CoV-2) (UniProt P0DTD1); remark: listed apart in the source

| SMILES | inhibition ([1]; 20.0 µM) [%] | inhibition ([1]; 50.0 µM) [%] | IC50 [2] [µM] | inhibition ([2]; 50.0 µM) [%] | inhibition ([2]; 20.0 µM) [%] | IC50 [1] [µM] |
| --- | --- | --- | --- | --- | --- | --- |
| O=C(CCl)N1CCN(Cc2cnc(Cc3ccccc3)s2)CC1 | 41.5 | 51.6 | 34.6 | 97.6 | – | – |
| C=CC(=O)N1CCN(S(C)(=O)=O)CC1c1ccccc1 (stereo not given) | -0.438 | 2.89 | – | 0 | – | – |
| CCc1cccc(CC)c1NC(=O)CN1C(=O)C(=O)c2cc(OC)ccc21 | -6.58 | -0.841 | – | 13 | – | – |
| CC(C)c1nc(CN(C)C(=O)N[C@H](C(=O)N[C@@H](Cc2ccccc2)C[C@H](O)[C@H](Cc2ccccc2)NC(=O)OCc2cncs2)C(C)C)cs1 (stereo in doubt) | 2.31 | 6.72 | – | – | 0 | – |
| C=CC(=O)N(c1ccc(C(C)(C)C)cc1)C(C(=O)NCCc1cccc(F)c1)c1cncc(O)c1 (stereo not given) | 16.1 | 23.5 | 26.2 | – | – | – |
| O=C(C(F)Cl)N1CCN(Cc2cccc3ccccc23)CC1 (stereo not given) | 20.5 | 29.5 | – | 9.11 | – | – |
| O=[N+]([O-])c1cnc(Sc2nccc(-c3cccnc3)n2)s1 | 9.63 | 37.5 | 1.44 | – | – | – |
| O=[N+]([O-])c1cnc(Sc2nnc(-c3ccc(Cl)cc3)o2)s1 | 28.9 | 71.2 | 0.319 | – | – | – |
| N#Cc1cncc(NC(=O)Cc2c[nH]c3ncccc23)c1 | -0.384 | 0.0775 | – | 0 | – | – |
| Cc1ccc2nc(-c3ccc(N)cc3)sc2c1S(=O)(=O)O | – | 21.2 | – | 0 | – | – |
| Cc1ccn2c(-c3ccc4[nH]ncc4c3)c(-c3ccc(F)cc3)nc2c1 | 0.801 | 0.943 | – | 50.8 | – | – |
| O=C(Cc1cc(Cl)cc(OC2CC(=O)N2)c1)Nc1cncc2ccccc12 (stereo not given) | – | – | 0.157 | – | – | 0.203 |
| O=C1Nc2cc(N3CCCC3)ccc2C1=O | 7.46 | 37.3 | – | 0 | – | – |
| COc1cc(Cl)cc(CC(=O)Nc2cnccc2C)c1 | 24.6 | 48.3 | 43.6 | – | – | – |
| COc1ccccc1OCCNC(=O)c1cc(=O)[nH]c2cccc(C)c12 | 91.8 | 96.4 | 2.6 | 89.7 | – | – |
| CS(=O)(=O)c1ccc(N2CCNCC2)cc1 | -2.52 | 5.05 | 83.8 | – | – | – |
| O=C(CCl)N1CCN(Cc2cc(O)cc(Cl)c2)CC1 | 75 | 89.5 | 1.57 | 98.9 | 92.7 | – |
| Cc1nnc(NC(=O)C2COc3ccc(Cl)cc32)n1C1CC1 (stereo not given) | -63.2 | -2.41 | – | 0 | – | – |
| CC(C)C[C@@H]1CN(C(=O)CCl)CCN1Cc1cccc(Cl)c1 (stereo in doubt) | 99.2 | 99.5 | 0.515 | 100 | – | – |
| COc1ccc(Cl)cc1N1CCN(Cc2cc(=O)[nH]c3ccccc23)C1=O | -1.82 | 4.69 | – | 0 | – | – |
| Cc1ccc(OCCN2C(=O)C(=O)c3cccc(Cl)c32)cc1 | 0.316 | 5.65 | 2.15 | 77 | – | – |
| COC(=O)[C@H](CO)NC(=O)[C@H](Cc1ccccc1)NC(=O)OCc1ccccc1 (stereo in doubt) | 1.06 | 2.61 | – | 0 | – | – |

| SMILES | inhibition ([1]; 20.0 µM) [%] | inhibition ([1]; 50.0 µM) [%] | IC50 [2] [µM] | inhibition ([2]; 50.0 µM) [%] | inhibition ([2]; 20.0 µM) [%] | IC50 [1] [µM] |
| --- | --- | --- | --- | --- | --- | --- |
| COc1cccc(C(=O)Nc2n[nH]c(SCc3ccc(Cl)cc3)n2)c1 | 8.77 | 32.5 | 0.2 | – | – | – |
| O=C(Nc1ccc([N+](=O)[O-])cc1)c1cc(Cl)ccc1O | -7.24 | -15.6 | – | 6 | 2.8 | – |
| O=C1Nc2ccc(OCCF)cc2C1=O | -6.86 | -2.92 | 45.2 | 56.2 | – | – |
| COc1cccc(CNC(=O)N2CCN(C(=O)N3CCCCC3)CC2)c1 | -3.31 | -0.332 | – | 0 | – | – |
| O=S(=O)(Cc1ccccc1F)c1oc(-c2ccc(F)cc2)nc1S(=O)(=O)c1ccccc1 | 49 | 95.9 | 0.0992 | – | – | – |
| Cc1cccc(C)c1NC(=O)CN1C(=O)C(=O)c2ccccc21 | -5.56 | -2.09 | – | 0 | – | – |
| COc1ccc(CN2C(=O)C(=O)c3cc(Br)cc(C)c32)cc1OC | -2.84 | 0.559 | 1.23 | 99.3 | – | – |
| O=C(Nc1nncn1C1CC1)C1CCS(=O)(=O)c2ccccc21 (stereo not given) | 37.6 | 74.6 | 26.8 | – | – | – |
| C=CC(=O)N(C(CO)CC#CC)C(C(=O)NC(C)(C)C)c1cccnc1 (stereo not given) | -4.06 | -4.3 | – | 0 | – | – |
| O=C(CCl)N1CCN(S(=O)(=O)c2ccc(Cc3cccc4ccccc34)cc2)CC1 | 20.6 | 29.9 | 15.2 | 89 | – | – |
| COc1ccc(-n2cc(CN3CCN(C(=O)CCl)CC3)nn2)cc1 | 10.9 | 24.9 | – | 24.1 | – | – |
| O=C(Oc1cncc(Cl)c1)c1cccc2[nH]ccc12 | 99.8 | 100 | – | 100 | – | – |
| O=C(Nc1cccnc1)N(CCN1CCOCC1)c1cccc(Cl)c1 | 24.4 | 49.6 | – | 59.4 | – | – |
| O=C(O)[C@@H](c1ccccc1)N1Cc2ccccc2C1=O (stereo in doubt) | 96.3 | 99.4 | 1.16 | – | – | – |
| CCOC(=O)c1ccc(NC(=O)CC2SC(=O)N(c3ccccc3)C2=O)cc1 (stereo not given) | 79 | 80.7 | 0.635 | – | – | – |
| O=C(Cc1ccc(Cl)c(Cl)c1)Nc1cncc2ccccc12 | – | – | 0.132 | – | – | 0.261 |
| Cc1ccc(CN2CCC(CNC(=O)Nc3cn(CC(C)C)c(=O)c4ccccc34)C2)cc1 (stereo not given) | -3.01 | 0.927 | 92.3 | – | – | – |
| COc1ccccc1OC1CCCN(C(=O)c2c(C)c(=O)[nH]c3ccccc23)C1 (stereo not given) | -2.54 | -1.13 | – | 0 | – | – |
| N#CCCCOC(=O)c1cccc2c1NC(=O)C2=O | -3.65 | -1.22 | – | 0 | – | – |
| COC(=O)c1c(C)nn(C(=O)c2cccs2)c1-c1snnc1C | 35 | 77 | 0.522 | – | – | – |
| N#Cc1cnn(C(=O)c2cccs2)c1C1CC1 | 33.2 | 69 | 0.363 | – | – | – |
| Cc1cc(C)c(C#N)c(Sc2ncnc3c2nnn3Cc2ccccc2)n1 | 79 | 97.7 | 0.255 | – | – | – |

| SMILES | inhibition ([1]; 20.0 µM) [%] | inhibition ([1]; 50.0 µM) [%] | IC50 [2] [µM] | inhibition ([2]; 50.0 µM) [%] | inhibition ([2]; 20.0 µM) [%] | IC50 [1] [µM] |
| --- | --- | --- | --- | --- | --- | --- |
| Cc1ccc(S(=O)(=O)Nc2c(-c3cccnc3)nc3ccccn23)c(C)c1 | 2.5 | 7.7 | – | 0 | – | – |
| C=CC(=O)N(c1ccc(C(F)(F)F)cc1)C(C(=O)Nc1ccc(OC)cc1)c1cccnc1 (stereo not given) | 40.3 | 60.7 | – | – | 60 | – |
| O=S(=O)(Cc1noc(C2CC2)n1)Nc1cccnc1 | -2.48 | -1.33 | – | 9.43 | – | – |
| COc1ccccc1OCCNC(=O)c1cc(=O)[nH]c2cccc(F)c12 | 8.74 | 12.5 | 1.83 | – | – | – |
| CN1CCN(C(=O)CNc2c(S(N)(=O)=O)ccc3ccccc23)CC1 | -0.961 | 0.321 | – | 0 | – | – |
| Cc1c(N)cncc1NC(=O)Cc1cccc(C#N)c1 | – | – | 32.2 | – | – | – |
| COc1ccc2c(=O)cc(-c3cc(OCc4ccccc4)ccc3OC)oc2c1 | – | – | – | 1.98 | – | – |
| Cc1ccncc1NC(=O)Cc1cc(Cl)cc(NS(C)(=O)=O)c1 | – | – | – | 54.6 | – | – |
| Cc1ccncc1NC(=O)Cc1cc(Cl)cc(-c2ccc(S(C)(=O)=O)cc2Cl)c1 | – | – | 19.5 | – | – | – |
| O=C(Cc1cccc(Cl)c1)Nc1nnc2ccccn12 | – | – | 93.9 | – | – | – |
| O=C(Cc1cccc(Cl)c1)Nc1n[nH]c2ccc(F)cc12 | – | – | 88.6 | – | – | – |
| COc1ccc(N(Cc2cccc(Cl)c2)C(=O)Cn2nnc3ccccc32)cc1 | – | – | 5.65 | – | – | – |
| Cc1ccncc1N1CCC(c2cccc(Cl)c2)S1(=O)=O (stereo not given) | – | – | 68.2 | – | – | – |
| CC(C)CCN1C(=O)C(=O)c2cc(Br)ccc21 | – | – | 24.3 | – | – | – |
| Cc1cc(C(F)(F)F)nc2n[nH]c(NC(=O)Cc3cccc(Cl)c3)c12 | – | – | 82 | – | – | – |
| O=C(Nc1cncc2ccccc12)C1=CCCc2ccc(Cl)cc21 | – | – | 0.0811 | – | – | – |
| O=C(Cc1cccc(Cl)c1)Nc1cccc2[nH]ncc12 | – | – | 23.6 | – | – | – |
| Cc1ccncc1NC(=O)Cc1cc(Cl)cc(-c2ccc(C3CC3(F)F)cc2)c1 (stereo not given) | – | – | 2.83 | – | – | – |
| C/C=C1\C(C2(C)CCCC(C)(C)C2)=CCC2C1[C@@H](OC(C)=O)O[C@H]2OC(C)=O (stereo in doubt) | – | – | – | 0 | – | – |
| O=C(Cn1nnc2ccccc21)N(Cc1cccc(Cl)c1)c1ccc(N2CCOCC2)cc1 | – | – | 3.79 | – | – | – |
| Cc1ccncc1NC(=O)Cc1cc(Cl)cc(OCCN2CCOCC2C)c1 (stereo not given) | – | – | – | 23.9 | – | – |
